Source: patent US8076324B2, “Di(hetero)arylcyclohexane derivatives, their preparation, their use and pharmaceutical compositions comprising them” (Sanofi-Aventis, priority 2007, dated 2011)

Experiments:
[1] = biological target: T1, myocardial ATP-sensitive potassium channel (SUR2A/Kir6.2) (UniProt Q61743+Q63563); test: Rubidium efflux test on HEK293 cells transfected with SUR2A and Kir6.2 (myocardial action); assay type: cell-based, SUR2A from the rat, Kir6.2 from the mouse; details: HEK293 cells transfected with SUR2A/Kir6.2; KATP channels opened by rilmakalim; 25 min incubation; read-out: IC50 values for the inhibition of the rubidium efflux
T1 construct: expressed in transfected cells
T1 sequence (Q63563 whole entry): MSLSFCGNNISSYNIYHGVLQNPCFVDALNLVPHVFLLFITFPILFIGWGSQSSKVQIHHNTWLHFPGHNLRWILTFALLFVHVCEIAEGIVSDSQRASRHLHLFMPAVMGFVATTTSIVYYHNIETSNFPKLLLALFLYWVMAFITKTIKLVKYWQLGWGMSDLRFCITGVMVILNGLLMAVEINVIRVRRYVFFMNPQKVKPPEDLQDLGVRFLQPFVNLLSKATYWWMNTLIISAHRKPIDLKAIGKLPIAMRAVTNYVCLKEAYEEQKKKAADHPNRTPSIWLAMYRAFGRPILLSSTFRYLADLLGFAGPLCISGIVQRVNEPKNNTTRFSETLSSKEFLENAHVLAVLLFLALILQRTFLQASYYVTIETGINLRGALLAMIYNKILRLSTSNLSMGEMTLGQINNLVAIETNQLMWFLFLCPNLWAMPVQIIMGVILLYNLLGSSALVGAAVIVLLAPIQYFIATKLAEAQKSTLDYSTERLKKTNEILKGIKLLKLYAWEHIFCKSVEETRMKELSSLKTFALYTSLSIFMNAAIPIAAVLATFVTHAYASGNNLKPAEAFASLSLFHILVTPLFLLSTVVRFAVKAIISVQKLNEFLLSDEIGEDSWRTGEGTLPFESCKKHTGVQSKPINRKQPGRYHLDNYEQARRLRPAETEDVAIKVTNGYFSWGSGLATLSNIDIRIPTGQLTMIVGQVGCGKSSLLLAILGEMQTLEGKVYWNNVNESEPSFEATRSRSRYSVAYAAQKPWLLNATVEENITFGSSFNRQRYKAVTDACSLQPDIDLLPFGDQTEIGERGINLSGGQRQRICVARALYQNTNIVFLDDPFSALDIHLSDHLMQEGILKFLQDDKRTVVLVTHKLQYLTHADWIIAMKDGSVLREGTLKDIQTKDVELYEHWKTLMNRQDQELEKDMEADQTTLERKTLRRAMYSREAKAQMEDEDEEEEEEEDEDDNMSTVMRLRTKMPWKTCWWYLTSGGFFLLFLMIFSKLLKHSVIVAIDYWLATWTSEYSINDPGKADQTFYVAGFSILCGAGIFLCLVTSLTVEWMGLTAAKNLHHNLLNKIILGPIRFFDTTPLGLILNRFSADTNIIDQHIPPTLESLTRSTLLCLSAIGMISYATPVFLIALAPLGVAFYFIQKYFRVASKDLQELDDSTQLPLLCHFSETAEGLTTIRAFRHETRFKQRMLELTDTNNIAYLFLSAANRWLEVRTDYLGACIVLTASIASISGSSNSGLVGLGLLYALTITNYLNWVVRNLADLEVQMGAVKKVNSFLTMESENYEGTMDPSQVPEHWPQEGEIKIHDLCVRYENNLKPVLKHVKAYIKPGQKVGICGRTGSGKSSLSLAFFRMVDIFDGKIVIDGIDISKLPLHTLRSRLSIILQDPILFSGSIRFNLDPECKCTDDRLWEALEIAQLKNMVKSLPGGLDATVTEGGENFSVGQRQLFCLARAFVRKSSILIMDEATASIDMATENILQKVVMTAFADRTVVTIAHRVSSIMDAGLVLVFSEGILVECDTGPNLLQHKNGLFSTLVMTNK
T1 sequence (Q61743 whole entry): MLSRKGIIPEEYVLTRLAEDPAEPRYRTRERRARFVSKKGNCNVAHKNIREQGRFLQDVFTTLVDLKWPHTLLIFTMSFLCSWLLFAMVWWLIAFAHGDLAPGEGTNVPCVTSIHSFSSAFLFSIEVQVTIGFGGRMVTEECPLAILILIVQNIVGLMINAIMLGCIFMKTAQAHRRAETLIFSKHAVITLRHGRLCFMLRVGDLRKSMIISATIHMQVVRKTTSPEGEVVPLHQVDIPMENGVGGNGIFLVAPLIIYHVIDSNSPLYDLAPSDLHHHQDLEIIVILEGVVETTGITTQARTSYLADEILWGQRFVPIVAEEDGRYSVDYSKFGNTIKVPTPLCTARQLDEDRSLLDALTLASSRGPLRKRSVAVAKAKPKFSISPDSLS
Procedure, shortened: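 HEK293 cells stably expressing mouse Kir6.2 and rat SUR2A loaded 3 h at 37 °C with 5.4 mM RbCl, then test compound added and channels opened with rilmakalim (2 μM, stock as added) for 25 min at 37 °C. Rb+ in supernatant and lysate by atomic absorption; efflux = supernatant/total, IC50 via Hill equation.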

IC50 [1] [nM] | melting point [°C] | Structure (SMILES)
< 1000 | 209 | O=C(O)[C@]1(c2ccc(F)cc2)CC[C@](OCC2CC2)(c2cn(CC3CC3)c(-c3ccccc3)n2)CC1 [Example 432, Trans-4-Cyclopropylmethoxy-4-(1-cyclopropylmethyl-2-phenyl-1H-imidazol-4-yl)-1-(4-fluorophenyl)cyclohexanecarboxylic Acid]
< 1000 | 210 | Cc1c(Br)nc([C@]2(OCC3CC3)CC[C@](C(=O)O)(c3ccc(F)cc3)CC2)n1CC1CC1 [Example 350, Cis 4-(4-Bromo-1-cyclopropylmethyl-5-methyl-1H-imidazol-2-yl)-4-cyclopropylmethoxy-1-(4-fluorophenyl)cyclohexanecarboxylic Acid]
< 1000 | 185 | Cc1c(Cl)nc([C@]2(OCC3CC3)CC[C@](C(=O)O)(c3ccc(F)cc3)CC2)n1CC1CC1 [Example 360, Cis-4-(4-Chloro-1-cyclopropylmethyl-5-methyl-1H-imidazol-2-yl)-4-cyclopropylmethoxy-1-(4-fluorophenyl)cyclohexanecarboxylic Acid]
< 1000 | > 300 | O=C(O)[C@]1(c2ccc(F)cc2)CC[C@](Oc2ccccn2)(c2ccc(F)cn2)CC1 [Example 339, Trans-1-(4-Fluorophenyl)-4-(5-fluoropyridin-2-yl)-4-(pyridin-2-yloxy)cyclohexanecarboxylic Acid]
